The values that follow come from patent US10533010B2, “Substituted indole Mcl-1 inhibitors” (Vanderbilt University, priority 2014, dated 2020).

For assay [1], the system named is H929. The assay can be described thus: Cellular viability (Cell TiterGlo) H929. Format: cell-based. Particulars: Homo sapiens, NCI-H929; H929 cells, 72 hours, 10% FBS; read-out: IC50 on cellular proliferation, H929. As to the method:
(§1) Human cancer cell lines ALMC-1, ALMC-2, K562, H929, and OPM-2 were cultured in media supplemented with 10% fetal bovine serum (FBS). To evaluate compound effect on cellular proliferation, cells were plated at 1,000 cells/well in 96-well tissue culture plates in a total volume of 90 μL medium supplemented with 10% FBS (Sigma, Saint Louis, Mo.). 24 hours later, 10 μL of compound (in a 2-fold serial dilution) is added to the cells for a top concentration of 50 μM and a final DMSO concentration <1%. After 72 hours, 50 μL of Cell TiterGlo (Promega, Madison, Wis., USA) reagent is added to each well and plates are incubated at room temperature, in the dark, for 30 minutes. Luminescence is measured on a BioTek Cytation 3. Luminescence values are imported into a template in XLFit (Guildford, Surrey, UK) that uses a four-parameter fit to generate an IC50 value for each compound dilution series on the plate.

Assay [2] deals with recombinant Mcl-1 (residues 172-327) (Homo sapiens (Human), UniProt Q07820). As to the kind of experiment: Fluorescence polarization anisotropy competition assay (FITC-Bak or FITC-Bim BH3 peptide) with Mcl-1. Format: binding. A general note: Fluorescence polarisation rises when a labelled molecule tumbles more slowly, as on binding a larger partner.
Chain of recombinant Mcl-1 (residues 172-327) (Q07820 172-327): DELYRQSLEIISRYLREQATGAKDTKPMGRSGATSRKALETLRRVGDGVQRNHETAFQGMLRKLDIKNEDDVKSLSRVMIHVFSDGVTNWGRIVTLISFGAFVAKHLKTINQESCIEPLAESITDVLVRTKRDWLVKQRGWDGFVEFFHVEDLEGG
In a further assay the test system is K562. As to the kind of experiment: Cellular viability (Cell TiterGlo) K562. Format: cell-based. To be noted: Homo sapiens; K562 cells, 72 hours, 10% FBS; read-out: IC50 on cellular proliferation, K562. As to the method:
as §1

The next assay deals with ALMC-2. As to the kind of experiment: Cellular viability (Cell TiterGlo) ALMC-2. Format: cell-based. Particulars: Homo sapiens, ALMC2; ALMC-2 cells, 72 hours, 10% FBS; read-out: IC50 on cellular proliferation, ALMC-2. As to the method:
as §1
For orientation: In ATP-based viability assays light output follows the ATP content of the culture.

A further assay has as its system ALMC-1. The assay can be described thus: Cellular viability (Cell TiterGlo) ALMC-1. It counts as cell-based. Particulars: Homo sapiens, ALMC1; ALMC-1 cells, 72 hours, 10% FBS; read-out: IC50 on cellular proliferation, ALMC-1. As to the method: as §1
Another assay concerns OPM-2. As to the kind of experiment: Cellular viability (Cell TiterGlo) OPM-2. It counts as cell-based. Particulars: Homo sapiens; OPM-2 cells, 72 hours, 10% FBS; read-out: IC50 on cellular proliferation, OPM-2. As to the method:
as §1

In assay [3] the target is Bcl-xL (residues 1-209, loop 45-86 deleted) (Homo sapiens (Human), UniProt Q07817, DEL45-86). As to the kind of experiment: Fluorescence polarization anisotropy competition selectivity assay (FITC-Bak peptide) with Bcl-xL. It counts as binding. To be noted: Table 3; 4 nM Bcl-xL, 10 nM FITC-Bak. As to the method:
(§2) Compound affinity was measured using a fluorescence polarization anisotropy competition assay. Anisotropy measurements were carried out in 384-well, black, flat-bottom plates (Greiner Bio-one, Monroe, N.C., USA). The assay was run using either a fluorescein isothiocyanate-labeled BH3 peptide derived from Bak (FITC-AHx-[…]-NH2) or a fluorescein isothiocyanate-labeled BH3 peptide derived from Bim (FITC-AHx-[…]-NH2) that were purchased from GenScript (Piscataway, N.J.) at >95% purity and used without further purification. 10 nM FITC-Bak peptide and 15 nM recombinant Mcl-1 (residues 172-327) were added to assay buffer (3 mM dithiothreitol, 50 mM NaCl, 20 mM Tris, pH 7.5). The Bim based assay was run with 1 nM FITC-Bim peptide and 1.5 nM recombinant Mcl-1 (residues 172-327) added to assay buffer (20 mM TRIS pH 7.5, 50 mM NaCl, 3 mM DTT, 0.01% CHAPS). For selectivity assays, 40 nM Bcl-2 (residues 1-207^A96T,G110R, Δ35-91, replaced with Bcl-xL35-50) or 4 nM Bcl-xL (residues 1-209, loop 45-86 deleted) were incubated with 10 nM FITC-Bak in assay buffer.
(§3) Compounds are diluted in DMSO in a 10-point, 3-fold serial dilution scheme. For the FITC-BAK assay 2.5 uL compound is added to 47.5 μL of assay buffer containing FITC-Bak and protein, for a final DMSO concentration of 5% and a top concentration of 20 μM. […] […]. The plate was mixed and incubated for 90 minutes at room temperature. Anisotropy is measured at excitation wavelength 480 nm and emission wavelength 535 nm using an EnVision Multi-label plate reader (PerkinElmer, Wellesley, Mass., USA) or a BioTek Cytation 3 (BioTek, Winooski, Vt., USA). […] IC50 is converted to a binding dissociation constant (Ki value) according to the formula of Wang Z. FEBS Lett (1996) 3, 245.

Assay [4] addresses Bcl-2 (residues 1-207 A96T,G110R, Δ35-91, replaced with Bcl-xL35-50) (Homo sapiens, UniProt P10415, A37E/DEL42-87/G36T/INS34DVEEN/P40E/P88T/P90S/P91E/V35R/V89E). As to the kind of experiment: Fluorescence polarization anisotropy competition selectivity assay (FITC-Bak peptide) with Bcl-2. To be noted: Table 3; 40 nM Bcl-2, 10 nM FITC-Bak. It counts as binding. As to the method: as §2, §3

The test system of assay [5] is H929. As to the kind of experiment: Apoptosis assay (Caspase 3/7 Glo) H929. It counts as cell-based. Particulars: Homo sapiens, NCI-H929; H929 cells, 3 hours, 5% FBS; read-out: EC50 on cellular caspase 3/7 activation, H929. As to the method:
Induction of apoptosis was measured by quantifying caspase 3/7 activity using the commercially available Caspase-Glo reagent (Promega, Madison, Wis., USA). This assay relies on the cleavage of a proluminescent substrate by activated caspases, which is then detected on the BioTek Cytation 3. 5000 cells in 90 μL of media (+5% FBS) are plated in each well of a white 96-well plate and incubated overnight at 37° C. in a tissue culture incubator. The following day, compound is diluted in a 10-pt, 2-fold serial dilution scheme for a final top concentration of 50 μM. 10 μL of compound is added directly to the cell assay plate for a final volume of 100 μL. Columns 11 and 12 are reserved for treatment with DMSO to serve as control wells. Plates are incubated for 3 hours. 100 μL of Caspase-Glo reagent is added to each well and plates are incubated at room temperature, in the dark, for 30 minutes. Luminescence is measured on the Cytation 3. Luminescence values are imported into a template in XLFit (Guildford, Surrey, UK) that uses a four-parameter fit to generate an IC50 value for each compound dilution series on the plate.

[6] abbreviates: Table 2, Ki bins given in nM, FITC-Bak or FITC-Bim peptide competition, Ki converted from IC50, read-out: Ki for Inhibition of Mcl-1.
The mark [7] stands for this setting: Table 3, selectivity panel, read-out: Mcl-1 Ki.

Read-outs that look alike come from different tables or passages of the source.

Chain of Bcl-xL (residues 1-209, loop 45-86 deleted) (Q07817 other isoform, or with tags, fused parts or gaps del 45-86): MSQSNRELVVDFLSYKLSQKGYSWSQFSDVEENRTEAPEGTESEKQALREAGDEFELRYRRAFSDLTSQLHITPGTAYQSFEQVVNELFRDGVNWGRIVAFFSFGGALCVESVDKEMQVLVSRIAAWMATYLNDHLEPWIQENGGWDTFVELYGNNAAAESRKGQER

Broadly, the Ki is the equilibrium dissociation constant of an inhibitor or competing ligand from its target. Turning to `Cc1cc(C(=O)O)cc(N2CCCn3c(c(CCCOc4cc(C)c(Cl)c(C)c4)c4ccc(Cl)c(-c5c(C)nn(C)c5C)c43)C2=O)c1` [I-220, 3-(8-chloro-11-(3-(4-chloro-3,5-dimethylphenoxy)propyl)-1-oxo-7-(1,3,5-trimethyl-1H-pyrazol-4-yl)-4,5-dihydro-1H-[1,4]diazepino[1,2-a]indol-2(3H)-yl)-5-methylbenzoic acid], the values for the IC50 with H929 [1] and with K562 were 4.9 µM and 14.8 µM, respectively. In addition, the Ki in assay [2] (setting [6]) was less than 50 nM.

Consider `Cc1cc(OCCCc2c3n(c4c(-c5c(C)nn(C)c5C)c(Cl)ccc24)CCCN(c2cccc(CC(=O)O)c2)C3=O)cc(C)c1Cl` [I-236, 2-(3-(8-chloro-11-(3-(4-chloro-3,5-dimethylphenoxy)propyl)-1-oxo-7-(1,3,5-trimethyl-1H-pyrazol-4-yl)-4,5-dihydro-H-[1,4]diazepino[1,2-a]indol-2(3H)-yl)phenyl)acetic acid], for which the IC50 in the assay with ALMC-2 amounted to 12.2 µM; in the assay with H929 [1], 7.3 µM; with ALMC-1 it was 6.9 µM; in the assay with K562 it was 25 µM; in the assay on OPM-2, 7.2 µM. The Ki in assay [2] (setting [6]) is less than 50 nM.

For the compound `Cc1cc(OCCCc2c3n(c4c(-c5c(C)nn(C)c5C)cccc24)CCN(Cc2cccc(C(=O)O)c2)C3=O)cc(C)c1Cl` [I-31, 3-((10-(3-(4-chloro-3,5-dimethylphenoxy)propyl)-1-oxo-6-(1,3,5-trimethyl-1H-pyrazol-4-yl)-3,4-dihydropyrazino[1,2-a]indol-2(1H)-yl)methyl)benzoic acid], the IC50 was found to be 33.9 µM with ALMC-2; 15 µM in the assay on H929 [1]; 13.1 µM with ALMC-1; 40 µM in the assay on K562; 16.3 µM with OPM-2. In addition, the Ki in assay [3] was 6.44 µM; in assay [2] (setting [6]), […]; in assay [2] (setting [7]), […]; in [4], 2200 nM.

In the case of `Cc1cc(OCCCc2c(C(=O)NC[C@H]3CC[C@H](C(=O)O)CC3)[nH]c3c(-c4c(C)nn(C)c4C)cccc23)cc(C)c1Cl` [I-320, (1R,4R)-4-((3-(3-(4-chloro-3,5-dimethylphenoxy)propyl)-7-(1,3,5-trimethyl-1H-pyrazol-4-yl)-1H-indole-2-carboxamido)methyl)cyclohexane-1-carboxylic acid], the Ki in assay [2] (setting [6]) was less than 50 nM. The EC50 in the assay on H929 [5] is 2300 nM.

As for `Cc1cc(OCCCc2c(C(=O)N(C)c3cccc(C(=O)O)c3)n(C)c3c(-c4c(C)nn(C)c4C)c(Cl)ccc23)cc(C)c1Cl` [I-189, 3-(6-chloro-3-(3-(4-chloro-3,5-dimethylphenoxy)propyl)-N,1-dimethyl-7-(1,3,5-trimethyl-1H-pyrazol-4-yl)-1H-indole-2-carboxamido)benzoic acid], the Ki was 4.63 µM in assay [3], less than 50 nM in [2] (setting [6]), less than 7 nM in [2] (setting [7]) and 1370 nM in assay [4].

Regarding `Cc1cc(OCCCc2c3n(c4c(-c5c(C)nn(C)c5C)c(Cl)ccc24)CCN(c2cccc(C(=O)O)c2)C3=O)cc(C)c1Cl` [I-178, 3-(7-chloro-10-(3-(4-chloro-3,5-dimethylphenoxy)propyl)-1-oxo-6-(1,3,5-trimethyl-1H-pyrazol-4-yl)-3,4-dihydropyrazino[1,2-a]indol-2(1H)-yl)benzoic acid], the IC50 is 8.7 µM in the assay with ALMC-2; 8.7 µM with H929 [1]; 6.1 µM in the assay with ALMC-1; 11.8 µM in the assay on K562; 11.7 µM with OPM-2. Further, in assay [2] (setting [6]), the Ki is less than 50 nM. In addition, in the assay on H929 [5], the EC50 came out at 3100 nM.
